Experimental data reported in patent publication US10561379B2, “In vivo positron emission tomography-based perfusion/blood pool imaging using labeled erythrocytes” (H. LEE MOFFITT CANCER CENTER AND RESEARCH INSTITUTE, INC., priority 2016, dated 2020).

Columns and labels:
human RBCs = test: FDG uptake by human RBCs (% total FDG incorporation, dose calibrator counting); assay type: cell-based; conditions: for mean % total FDG incorporation: 30' 37° C. incubation with 37-74 MBq FDG (text b108)
Protocol: […] 30′, centrifuged 1000 g 10′, and washed twice in 4× volume 1×EDTA solution. […] Sample/wash aliquots were counted in an Atomlab 600 dose calibrator (Biodex) to measure % retained FDG.
Human red blood cell (RBC) preparation and FDG-RBC labeling: Packed human red blood cells collected in standard anticoagulant citrate dextrose (ACD) solution (either ≤24 hours post phlebotomy or ˜5 day post phlebotomy) were obtained from Zen-Bio, Inc. 370-740 Megabecquerel (MBq) (1 ml) USP grade 2-deoxy-2-(^18F)fluoro-D-glucose (FDG) were obtained from Cardinal Health. Vendor supplied human RBCs are centrifuged 1000 g 10′, and the remaining anticoagulant and buffy coat residual are gently aspirated. RBCs are then gently washed in a 4× volume of filter sterilized “1×EDTA” solution (140 mM NaCl, 4 mM KCl, 2.5 mM Ethylenediaminetetraacetic acid dipotassium salt dihydrate (K2EDTA dihydrate)), centrifuged at 1000 g 10′, and the wash is manually aspirated. […] Samples are then centrifuged at 1000 g 10′ and the supernatant is carefully aspirated. RBCs are then washed and centrifuged twice with 4× volumes of 1×EDTA solution. For experiments characterizing residual unincorporated FDG, a 3rd wash/centrifugation step was performed. […] Aliquots from all samples and washes are counted with the Atomlab™ 600 dose calibrator (Biodex Medical Systems, Inc.).

[1] = system: splenectomized NSG immunodeficient mouse; test: microPET imaging of mice injected with FDG-labeled human erythrocytes or free FDG (Example 2); assay type: in vivo; conditions: tail vein catheter injection (≈47 microCuries FDG-labeled erythrocytes or ≈32 microCuries free FDG), 20-minute PET
Protocol: Approximately 47 microCuries of FDG-labeled human erythrocytes were injected via tail vein catheter into a splenectomized NSG immunodeficient mouse. The mouse was placed into a Siemens INVEON microPET scanner, and 18-F PET imaging of the mouse was performed over a 20-minute time period.
Approximately 32 microCuries of free FDG were injected via tail vein catheter into a second splenectomized NSG immunodeficient mouse. The mouse was placed into the Siemens INVEON microPET scanner, and 18-F PET imaging of the mouse was performed over a 20-minute time period.

human red blood cells = test: FDG labeling of human red blood cells, 5 minute incubation at room temperature (Example 1); assay type: cell-based
Protocol: 150 microCuries of FDG in a 100 microliter volume was incubated with 250 microliters of human red blood cells to a final solution volume of 500 microliters (NaCl/KCl/EDTA solution contains 140 mM NaCl, 4 mM KCl, 2.5 mM K2EDTA dihydrate). FDG incubation duration=5 minutes at room temperature. Triplicate samples were used. Samples were centrifuged 1000 g 10 minutes after 5 minute FDG incubation, and RBC pellet was washed twice with 1.0 ml of NaCl/KCl/EDTA solution. A sample of the collected supernatant and a pellet sample was counted in a gamma counter with 18-F gating. 3% incorporation rate=4.5 microCurie of incorporated FDG/250 microliters of human red blood cell=18 microCurie of FDG/1 ml human red blood cells. Thus, 60 milliliters of whole blood from a patient should yield approximately 432-486 microCuries of FDG labeled red blood cells. (Assumes average 40% female hematocrit and 45% male hematocrit).

[2] = system: splenectomized NSG immunodeficient mice; test: ECG-gated whole body microPET/CT imaging of NSG immunodeficient mice; assay type: in vivo, mouse; conditions: for time activity curve (TAC) of the heart, pattern: observation period 20-30 minutes; for anatomic distribution of FDG in the heart (fused microPET/CT images) / whole body distribution of FDG activity on microPET image / urinary excretion of FDG (kidneys, bladder) on microPET image: tail vein injection; for whole body distribution of FDG activity on microPET image: injected activity differs per figure
Protocol: 4-6 wk old splenectomized NSG immunodeficient mice (Jax Lab) were fasted O/N and phlebotomized (200-250 μl), prior to microPET imaging with an INVEON PET/CT preclinical scanner (Siemens). […]
PET images were analyzed with INVEON workstation software (Siemens). Patlak compartment plot option was chosen. For 3D PET and 4D PET data sets, VOIs were selected manually based on corresponding CT images: heart, leg muscle, liver, kidney and brain.
ECG-gated whole body microPET imaging of NSG immunodeficient mice: 4-6 week old splenectomized NOD scid gamma (NSG™) immunodeficient mice were obtained from The Jackson Laboratory. Mice were placed in specialized housing for immunodeficient mouse in the Moffitt Cancer Center (MCC) vivarium. Approval for all animal experimentation was first obtained from the University of South Florida (USF) Institutional Animal Care and Use Committee (IACUC). All animal experimentation was performed in accordance to federal regulations and USF IACUC principles and procedures. Animal imaging was performed in the MCC Small Animal Imaging Laboratory with an INVEON PET/CT (Siemens Medical Inc., Knoxville, Tenn.) preclinical scanner. Mice are first fasted the night before microPET imaging and undergo phlebotomy of ≈200-250 μl whole blood via retro-orbital venous plexus puncture immediately prior to microPET imaging. Blood glucose from the phlebotomized blood is measured. A tail vein microcatheter is placed in each mouse under inhalational isoflurane anesthesia. […] The PET part of the system has 64 detector blocks with total field of view (FOV) 12.7 cm and a spatial resolution of 1.4 mm. […] The ECG signal in each mouse was detected with three flat electrodes placed in two front and one rear limbs of each animal (ground lead on a rear leg). […] The threshold for TTL cardiac gating signals was set in a rising mode of R-wave peak. The PET list-mode data were reconstructed using 3D-OSEM iterative algorithm with four iterations and eight subsets, with a final image volume of 256×256×256 voxels. Voxel effective dimensions were 1.4×1.4×1.4 mm. For each animal there are three data sets: standard 3-dimensional (3D) PET reconstruction, resulting in a motion-time average 3D PET image; dynamic 3D PET reconstruction with 30 frames; and the phase-based 4-dimensional (regular 3-dimensional plus time, 4D) PET cardiac reconstruction, with four cardiac gates binning. In all cases, CT attenuation correction was applied to the PET images.
PET images of the mice were analyzed using INVEON Workstation Software (Siemens Medical Inc., Knoxville, Tenn.). Vendor software-supplied Patlak compartment plot option was selected (Patlak et al., 1983). For 3D PET and 4D PET data sets multiple volumes of interest (VOI) were selected manually based on corresponding CT images including: heart, leg muscle, liver, kidney and brain. […] Dynamic activity curves were plotted for VOIs using dynamic 3D PET data set for each animal. The 4D PET data were used for defining cardiac function. First the heart was segmented on CT images based on anatomical features, after that segmented volume (cardiac PET VOI) was transferred into co-registered PET images.

2-deoxy-2-(^18F)fluoro-D-glucose [FDG]
FDG incorporated in packed RBCs on clinical translation of the labeling/wash protocol (human RBCs; 10 ml's packed RBCs, initial 740 MBq FDG, inventor's prediction): up to 370 MBq | mean % total FDG incorporation (human RBCs; 250 μl 1 day old RBCs): 85.3%±1.8% | % total FDG incorporation (human RBCs; 250 μl 1 day old human RBCs, 37° C., 30' (text b110)): 73.3%±3.6% | % total FDG incorporation (human RBCs; 250 μl 1 day old human RBCs, 37° C., 30 minutes (time course)): 78.3%±0.9 | % total FDG incorporation (human RBCs; 250 μl 1 day old human RBCs, 37° C., 1 hour (time course)): 85.0%±0.0% | % total FDG incorporation (human RBCs; 250 μl 1 day old human RBCs, 37° C., 2 hours (FIG. 3 legend)): 73.3%±3.6% | % total FDG incorporation (human RBCs; 250 μl 1 day old human RBCs, 37° C., 2 hours (time course)): 85.3%±0.3% | % total FDG incorporation (human RBCs; 250 μl 1 day old human RBCs, 2 hours (FIG. 4 legend)): 85.3%±1.8% | % total FDG incorporation (human RBCs; 250 μl 1 day old human RBCs, room temperature (~25° C.), 2 hours): 10.3%±1.1% | % total FDG incorporation (human RBCs; 250 μl 5 day old human RBCs, 2 hours (FIG. 4 legend)): 3.3%±0.2% | mean % total FDG incorporation (human RBCs; 5 day old RBCs): 3.3%±0.2% | internal FDG uptake (in words) (human RBCs; human RBCs collected and used ≈5 days after phlebotomy): negligible rate of internal FDG uptake | tracer distribution on PET image [1]: majority of free FDG uptake is seen in the heart muscle, bladder, and kidneys | incorporation rate (human red blood cells; 150 microCuries FDG, 250 microliters human red blood cells, 5 minutes at room temperature): 3% | FDG/1 ml human red blood cells (human red blood cells; 5 minutes at room temperature): 18 microCurie | incorporated FDG/250 microliters of human red blood cell (human red blood cells; 5 minutes at room temperature, 150 microCuries FDG): 4.5 microCurie | FDG labeled red blood cells yielded from 60 milliliters of whole blood from a patient (human red blood cells; extrapolated, assumes 40% female and 45% male hematocrit): 432-486 microCuries | time activity curve (TAC) of the heart, pattern [2]: increases steadily over the observation period of 20-30 minutes | time activity curve (TAC) of the heart, pattern ([2]; listed as free FDG): steady increase in FDG activity over time | anatomic distribution of FDG in the heart (fused microPET/CT images) [2]: marked myocardial uptake of FDG in the left ventricle | whole body distribution of FDG activity on microPET image ([2]; listed as free 18F-FDG): normal marked FDG uptake in the myocardium | whole body distribution of FDG activity on microPET image ([2]; listed as free FDG): intense FDG accumulation in the myocardium and brain | anatomic distribution of FDG in the heart (fused microPET/CT images) ([2]; listed as free 18F-FDG): intense physiologic FDG uptake by myocardium of the left ventricle | urinary excretion of FDG (kidneys, bladder) on microPET image ([2]; listed as free 18F-FDG): physiologic FDG excretion into the kidneys and bladder | urinary excretion of FDG (kidneys, bladder) on microPET image ([2]; listed as free FDG): marked urinary excretion in the kidneys and bladder
